Measured values as given in patent publication US12589156B2, “Benzimidazole and benzimidazolone based protac compounds for the targeted degradation of leucine rich repeat kinase 2 (LRRK2)” (Arvinas Operations, Inc., priority 2023, dated 2026).

Target: T1, WT LRRK2 (Homo sapiens, UniProt Q5S007)
T1 construct: endogenous in cells; host or cells: HEK293 (endogenous LRRK2 gene knock-in tagged with HiBit; stably expressing CMV-driven firefly luciferase)
Assay: LRRK2 HiBit degradation assay (Nano-Glo Dual Luciferase) in HEK293 cells with HiBit-tagged endogenous LRRK2
Assay type: cell-based
Text: Biological Assays Exemplary Assay for Testing LRRK2 Degradation Driven by Exemplary Hetero-Bifunctional Compounds Designed to Target LRRK2
The assay measures the degradation of LRRK2 in cells where the C-terminus (3′) of the endogenous gene has been tagged with a HiBit sequence in HEK293 cells. The cells also express firefly lucisferase, expressed from a Cytomegalovirus promoter and introduced into the HiBit tagged cells and stably expressed. The Nano-Glo® Dual Luciferase Reporter Assay System (Promega™, Madison, WI) was utilized.
Day 1—Preparation of Compound and Assay Plates. Two sets of plates were prepared: a triplicate set for the HiBit assay in white 384-well plates and a triplicate set of plate in black 384-well plates for the Alamar Blue cell viability assay. Briefly, the growth media (DMEM+Glutamax-10% fetal bovine serum-1% Penicillin-Streptomicin) from two T128 flasks was aspirated from the flasks. Cells were washed with Dulbecco's Phosphate Buffered Saline (dPBS) and aspirated. Trypsin (3 mL per flask) was added and the flasks were incubated for 2-3 minutes.
Ten mL of OptiMEM—10% fetal bovine-1% penicillin-streptomycin (hereinafter, “OptiMEM media”) was added to the flask and the cells and transferred to a 50 ml conical tube. A cell count (25 ul of cell into Effendorf vial+25 ul of Trypan Blue Stain) was performed and the cell density adjusted to 15,000 cell/45 μl/well (3.33×10^5/mL) in OptiMEM media.
Forty-five microliters of the cell suspension (15,000 cells) was aliquoted to each well of the white 384-well plate. The plates incubated at room temperature for 10 minutes before being placed in the 37° C.+5% CO2 incubator overnight
Day 2—Compound Treatment. Exemplary compounds were prepared at a 1 mM starting concentration and 1:3 serial dilution for 11 points CRC prepared and stored in the freezer. The Master Compound Plate was thawed overnight at room temperature. DMSO (20 μL) was added into column 24 of the Master Compound Plate for negative control and 20 μL of 300 μM of Compound 4 in column 23 as positive control.
Intermediate Compound Plate with 4% DMSO in OptiMEM Media. DMSO was added to warm OptiMEM media to achieve a 4% DMSO solution (approximately 50 mL/plate). One-hundred microliters of the OptiMEM-4% DMSO was aliquoted to each well of 384-Well Deep Well Microplates.
The Master Compound Plate and the Intermediate Compound Plate were spun down.
One microliter of compound from the Master Compound Plate was transferred into the Intermediate plate (a 1:100 dilution). The diluted mixture was mixed and 5 μL transferred into the assay plate (a 1:10 dilution) for the final starting concentration of 1 μM. The Treated Assay plates were incubated for 24 hours at 37° C.+5% CO2. The Master Compound Plate was sealed and store at room temperature for a second run that was performed within a week.
One set of white assay plates was warmed to room temperature (45 minute).
The One Glo luciferase mixture was prepared. The media from white 384-well assay plates was aspirated. Twenty-five μL of the One Glo luciferase mixture was added to each well of the assay plates. The plates were incubated on the bench (room temperature) for 45 minutes, including 10 minutes of shaking at 700 rpm. The luminescence of each plate was read on a plate reader.
1:100 DLR substrate and 1:100 LgBiT Protein dilution were added to the Promega Stop and Glo buffer and mixed just before addition to assay plates. Twenty-five microliters of Stop and Glo mixture was added to each well. Assay plates incubated for at least 45 minutes, including 10 minutes of shaking at 700 rpm. The luminescence of each plate was read on a plate reader.
Analysis of LRRK2 HiBit Screening assays. As mentioned above, plates were run in triplicate and the assay repeated twice (total of 6 replicate for exemplary compounds). For each treatment, measurements were taken for firefly luciferase for cell number, cell viability (Alamar Blue), and Nanoluc for the LRRK2-HiBit quantification. […]

[1] = HEK293, Table 2, maximal degradation, HiBit-tagged LRRK2 in HEK293 cells, 24 hours treatment
[2] = Table 2, HiBit-tagged LRRK2 in HEK293 cells, 24 hours treatment, starting concentration 1 μM
[3] = HEK293, Table 3, comparison with direct comparators, maximal degradation
[4] = Table 3, comparison with direct comparators, HiBit-tagged LRRK2 in HEK293 cells, 24 hours treatment
[5] = Table 2, maximal degradation, HiBit-tagged LRRK2 in HEK293 cells, 24 hours treatment

T1 sequence (Q5S007 whole entry): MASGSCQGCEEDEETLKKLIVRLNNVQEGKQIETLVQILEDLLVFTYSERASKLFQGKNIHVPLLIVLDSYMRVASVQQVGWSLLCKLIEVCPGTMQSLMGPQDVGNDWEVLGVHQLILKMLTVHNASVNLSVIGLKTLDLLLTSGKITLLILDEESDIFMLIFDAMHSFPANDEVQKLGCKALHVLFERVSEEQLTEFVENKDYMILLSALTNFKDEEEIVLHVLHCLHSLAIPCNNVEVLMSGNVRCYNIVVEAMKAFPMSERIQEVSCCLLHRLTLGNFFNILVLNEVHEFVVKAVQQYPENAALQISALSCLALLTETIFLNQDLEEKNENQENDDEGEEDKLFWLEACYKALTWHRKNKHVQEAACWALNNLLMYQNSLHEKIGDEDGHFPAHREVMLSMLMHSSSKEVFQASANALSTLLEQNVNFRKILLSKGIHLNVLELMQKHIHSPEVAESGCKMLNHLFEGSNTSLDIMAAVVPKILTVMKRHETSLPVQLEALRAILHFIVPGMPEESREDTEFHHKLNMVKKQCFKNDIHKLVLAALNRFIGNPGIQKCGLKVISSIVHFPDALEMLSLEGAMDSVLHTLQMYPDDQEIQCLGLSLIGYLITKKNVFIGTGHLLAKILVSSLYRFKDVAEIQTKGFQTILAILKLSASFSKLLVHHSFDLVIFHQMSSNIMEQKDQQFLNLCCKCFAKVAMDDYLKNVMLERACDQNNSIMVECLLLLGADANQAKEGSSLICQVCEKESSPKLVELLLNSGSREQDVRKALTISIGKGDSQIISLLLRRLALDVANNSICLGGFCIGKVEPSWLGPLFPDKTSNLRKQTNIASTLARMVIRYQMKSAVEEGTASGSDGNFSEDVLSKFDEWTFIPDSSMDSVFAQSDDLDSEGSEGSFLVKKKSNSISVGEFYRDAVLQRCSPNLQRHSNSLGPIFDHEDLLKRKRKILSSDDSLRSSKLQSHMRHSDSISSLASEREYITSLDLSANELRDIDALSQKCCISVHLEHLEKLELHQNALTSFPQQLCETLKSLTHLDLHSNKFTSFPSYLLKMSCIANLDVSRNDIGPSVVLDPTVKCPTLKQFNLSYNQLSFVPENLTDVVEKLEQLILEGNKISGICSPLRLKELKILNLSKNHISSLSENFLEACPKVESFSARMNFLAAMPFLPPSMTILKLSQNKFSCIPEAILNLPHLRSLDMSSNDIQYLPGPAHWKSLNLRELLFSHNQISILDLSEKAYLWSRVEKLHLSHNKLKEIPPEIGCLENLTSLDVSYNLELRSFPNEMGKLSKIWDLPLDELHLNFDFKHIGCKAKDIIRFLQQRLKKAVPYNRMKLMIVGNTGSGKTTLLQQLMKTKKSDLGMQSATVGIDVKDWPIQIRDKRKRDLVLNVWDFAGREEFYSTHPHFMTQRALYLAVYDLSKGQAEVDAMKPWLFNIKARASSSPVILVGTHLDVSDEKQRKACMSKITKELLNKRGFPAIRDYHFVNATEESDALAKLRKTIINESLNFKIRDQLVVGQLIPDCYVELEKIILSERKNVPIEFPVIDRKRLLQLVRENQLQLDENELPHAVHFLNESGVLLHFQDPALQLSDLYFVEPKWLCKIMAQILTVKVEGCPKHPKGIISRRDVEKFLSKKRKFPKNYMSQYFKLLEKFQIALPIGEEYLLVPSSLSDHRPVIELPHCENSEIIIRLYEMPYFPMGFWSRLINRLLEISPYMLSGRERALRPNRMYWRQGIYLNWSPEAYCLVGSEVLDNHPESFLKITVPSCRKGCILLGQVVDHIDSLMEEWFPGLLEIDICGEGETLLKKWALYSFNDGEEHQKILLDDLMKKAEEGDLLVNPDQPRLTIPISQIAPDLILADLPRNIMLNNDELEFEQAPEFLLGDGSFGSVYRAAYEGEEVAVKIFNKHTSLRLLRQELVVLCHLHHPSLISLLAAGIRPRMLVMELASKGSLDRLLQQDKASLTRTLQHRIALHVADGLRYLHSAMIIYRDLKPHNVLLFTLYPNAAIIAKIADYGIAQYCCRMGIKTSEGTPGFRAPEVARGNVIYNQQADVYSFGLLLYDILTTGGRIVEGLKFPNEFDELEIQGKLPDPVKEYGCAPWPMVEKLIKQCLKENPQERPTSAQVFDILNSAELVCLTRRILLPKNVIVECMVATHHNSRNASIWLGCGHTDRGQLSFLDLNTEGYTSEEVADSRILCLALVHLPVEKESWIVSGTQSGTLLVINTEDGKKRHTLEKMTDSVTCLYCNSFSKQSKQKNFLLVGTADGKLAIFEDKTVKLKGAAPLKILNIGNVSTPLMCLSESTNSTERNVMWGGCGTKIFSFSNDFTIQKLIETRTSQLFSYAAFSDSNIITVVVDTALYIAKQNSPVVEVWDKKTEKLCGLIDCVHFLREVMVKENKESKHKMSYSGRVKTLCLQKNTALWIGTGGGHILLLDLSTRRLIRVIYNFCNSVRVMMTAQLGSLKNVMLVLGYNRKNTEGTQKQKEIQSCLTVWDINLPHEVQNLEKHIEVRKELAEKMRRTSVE

| SMILES | Dmax [1] [%] | DC50 [2] [nM] | Dmax [3] [%] | DC50 [4] [nM] | Dmax [5] [%] | WT LRRK2 **Dmax (%) [5] [%] |
| --- | --- | --- | --- | --- | --- | --- |
| Cn1c(=O)n(C2CCC(=O)NC2=O)c2ccc(N3CCC(O[C@H]4CC[C@H](CN5CCN(c6cc(-c7n[nH]c8cnc(C9(C#N)CC9)cc78)ncn6)CC5)CC4)CC3)cc21 (single isomer, unassigned) [Compound 23, rel-1-{3-[6-(4-{[(1r,4r)-4-({1-[1-(2,6-dioxopiperidin-3-yl)-3-methyl-2-oxo-2,3-dihydro-1H-1,3-benzodiazol-5-yl]piperidin-4-yl}oxy)cyclohexyl]methyl}piperazin-1-yl)pyrimidin-4-yl]-1H-pyrazolo[3,4-c]pyridin-5-yl}cyclopropane-1-carbonitrile] | 45 | 0.56 | – | – | – | – |
| CC(C)n1c(=O)n(C2CCC(=O)NC2=O)c2ccc(N3CCC(O[C@H]4CC[C@H](CN5CCN(c6cc(-c7n[nH]c8ccc(OC9(C)CC9)cc78)ncn6)CC5)CC4)CC3)cc21 (single isomer, unassigned) [Compound 49, rel-3-[2-oxo-3-(propan-2-yl)-5-(4-{[(1r,4r)-4-[(4-{6-[5-(1-methylcyclopropoxy)-1H-indazol-3-yl]pyrimidin-4-yl}piperazin-1-yl)methyl]cyclohexyl]oxy}piperidin-1-yl)-2,3-dihydro-1H-1,3-benzodiazol-1-yl]piperidine-2,6-dione] | 55 | 0.44 | – | – | – | – |
| Cc1nc2cc(N3CCC(CN4CCN(CC5CCN(c6cc(-c7n[nH]c8ccc(OC9(C)CC9)cc78)ncn6)CC5)C(C)(C)C4)CC3)ccc2n1C1CCC(=O)NC1=O (stereo not shown) [Compound 38, 3-{5-[4-({3,3-dimethyl-4-[(1-{6-[5-(1-methylcyclopropoxy)-1H-indazol-3-yl]pyrimidin-4-yl}piperidin-4-yl)methyl]piperazin-1-yl}methyl)piperidin-1-yl]-2-methyl-1H-1,3-benzodiazol-1-yl}piperidine-2,6-dione] | 53 | 1.2 | 53 | 1.2 | – | – |
| CC1(Oc2ccc3[nH]nc(-c4cc(N5CCC(CN6CCN(CC7CCN(c8ccc9c(c8)ncn9C8CCC(=O)NC8=O)CC7)CC6)CC5)ncn4)c3c2)CC1 (stereo not shown) [Compound 11, 3-{5-[4-({4-[(1-{6-[5-(1-methylcyclopropoxy)-1H-indazol-3-yl]pyrimidin-4-yl}piperidin-4-yl)methyl]piperazin-1-yl}methyl)piperidin-1-yl]-1H-1,3-benzodiazol-1-yl}piperidine-2,6-dione] | 62 | 1.6 | 62 | 1.6 | – | – |
| CC1(Oc2ccc3[nH]nc(-c4cc(N5CCC(CN6CCN(CC7CCN(c8ccc9ncn(C%10CCC(=O)NC%10=O)c9c8)CC7)CC6(C)C)CC5)ncn4)c3c2)CC1 (stereo not shown) [Compound 10, 3-{6-[4-({3,3-dimethyl-4-[(1-{6-[5-(1-methylcyclopropoxy)-1H-indazol-3-yl]pyrimidin-4-yl}piperidin-4-yl)methyl]piperazin-1-yl}methyl)piperidin-1-yl]-1H-1,3-benzodiazol-1-yl}piperidine-2,6-dione] | 69 | 4.5 | – | – | – | – |
| Cn1c(=O)n(C2CCC(=O)NC2=O)c2ccc(N3CCC(O[C@H]4C[C@H](OC5CCN(c6cc(-c7n[nH]c8cnc(OC9(C)CC9)cc78)ncn6)CC5)C4)CC3)cc21 (single isomer, unassigned) [Compound 30, rel-3-(3-methyl-2-oxo-5-{4-[(1r,3r)-3-[(1-{6-[5-(1-methylcyclopropoxy)-1H-pyrazolo[3,4-c]pyridin-3-yl]pyrimidin-4-yl}piperidin-4-yl)oxy]cyclobutoxy]piperidin-1-yl}-2,3-dihydro-1H-1,3-benzodiazol-1-yl)piperidine-2,6-dione] | – | 0.065 | – | – | 48 | – |
| Cn1c(=O)n(C2CCC(=O)NC2=O)c2ccc(N3CCC(OC4CCC(CN5CCN(c6cc(-c7n[nH]c8ccc(OC(C)(C)C)cc78)ncn6)CC5)CC4)CC3)cc21 (stereo not drawn) [Compound 54, rel-3-[3-methyl-2-oxo-5-(4-{[(1r,4r)-4-[(4-{6-[5-(tert-butoxy)-1H-indazol-3-yl]pyrimidin-4-yl}piperazin-1-yl)methyl]cyclohexyl]oxy}piperidin-1-yl)-2,3-dihydro-1H-1,3-benzodiazol-1-yl]piperidine-2,6-dione] | – | 0.33 | – | – | – | 53 |
| Cn1c(=O)n(C2CCC(=O)NC2=O)c2ccc(N3CCC(O[C@H]4CC[C@H](CN5CCN(c6cc(-c7n[nH]c8ccc([C@@]9(C#N)CC9%10CC%10)cc78)ncn6)CC5)CC4)CC3)cc21 (single isomer, unassigned) [Compound 65, (1R**)-1-{3-[6-(4-{[(1r*,4r*)-4-({1-[1-(2,6-dioxopiperidin-3-yl)-3-methyl-2-oxo-2,3-dihydro-1H-1,3-benzodiazol-5-yl]piperidin-4-yl}oxy)cyclohexyl]methyl}piperazin-1-yl)pyrimidin-4-yl]-1H-indazol-5-yl}spiro[2.2]pentane-1-carbonitrile] | 64 | 0.13 | – | – | – | – |
| Cn1c(=O)n(C2CCC(=O)NC2=O)c2ccc(N3CCC(O[C@H]4CC[C@H](CN5CCN(c6cc(-c7n[nH]c8cnc(C9(C#N)CC%10(CC%10)C9)cc78)ncn6)CC5)CC4)CC3)cc21 (single isomer, unassigned) [Compound 24, rel-5-{3-[6-(4-{[(1r,4r)-4-({1-[1-(2,6-dioxopiperidin-3-yl)-3-methyl-2-oxo-2,3-dihydro-1H-1,3-benzodiazol-5-yl]piperidin-4-yl}oxy)cyclohexyl]methyl}piperazin-1-yl)pyrimidin-4-yl]-1H-pyrazolo[3,4-c]pyridin-5-yl}spiro[2.3]hexane-5-carbonitrile] | 49 | 0.46 | – | – | – | – |
| CC(C)Oc1cc2c(-c3cc(N4CCN(C[C@H]5CC[C@H](OC6CCN(c7ccc8c(c7)n(C(C)C)c(=O)n8C7CCC(=O)NC7=O)CC6)CC5)CC4)ncn3)n[nH]c2cn1 (single isomer, unassigned) [Compound 59, rel-3-[2-oxo-3-(propan-2-yl)-5-(4-{[(1r,4r)-4-[(4-{6-[5-(propan-2-yloxy)-1H-pyrazolo[3,4-c]pyridin-3-yl]pyrimidin-4-yl}piperazin-1-yl)methyl]cyclohexyl]oxy}piperidin-1-yl)-2,3-dihydro-1H-1,3-benzodiazol-1-yl]piperidine-2,6-dione] | 41 | 0.74 | – | – | – | – |
| Cn1c(=O)n(C2CCC(=O)NC2=O)c2ccc(C3CCN([C@H]4C[C@H](OC5CCN(c6cc(-c7n[nH]c8ccc(OC9(C)CC9)cc78)ncn6)CC5)C4)CC3)cc21 (single isomer, unassigned) [Compound 37, rel-3-(3-methyl-2-oxo-5-{1-[(1r,3r)-3-[(1-{6-[5-(1-methylcyclopropoxy)-1H-indazol-3-yl]pyrimidin-4-yl}piperidin-4-yl)oxy]cyclobutyl]piperidin-4-yl}-2,3-dihydro-1H-1,3-benzodiazol-1-yl)piperidine-2,6-dione] | – | 0.053 | – | – | 64 | – |
| CC1(Oc2cc3c(-c4cc(N5CCN(C[C@H]6CC[C@H](OC7CCN(c8ccc9c(c8F)CN(C8CCC(=O)NC8=O)C9=O)CC7)CC6)CC5)ncn4)n[nH]c3cn2)CC1 (stereo partly shown) [Comparative Example 3, reference compound] | – | – | 65 | 4.3 | – | – |
